Data: ChEMBL document CHEMBL1128034, “Structure activity of topoisomerase i poisons related to hoechst 33342” (Bioorg Med Chem Lett, 1994)

Legend:
Format in all cases: functional, cell-based
RPMI 8402 [1] = assay: Cytotoxicity towards camptothecin resistant CPT-K5 cell line in human
PC-3 [2] = assay: Cytotoxicity towards prostatic carcinoma (PC3) cells in human; Not active
RPMI 8402 [3] = assay: Cytotoxicity towards lymphoblastoma (RPMI 8402) cells in human
SK-MEL [4] = assay: Cytotoxicity towards melanoma (SK-Mel) cells in human; Not active
PC-3 [5] = assay: Cytotoxicity towards prostatic carcinoma (PC3) cells in human
SK-MEL [6] = assay: Cytotoxicity towards melanoma (SK-Mel) cells in human

| Structure (SMILES) | IC50 (RPMI 8402 [1]) | IC50 (PC-3 [2]) | IC50 (RPMI 8402 [3]) | IC50 (SK-MEL [4]) | IC50 (PC-3 [5]) | IC50 (SK-MEL [6]) |
| --- | --- | --- | --- | --- | --- | --- |
| COc1ccc(-c2nc3cc(-c4nc5cc([N+](=O)[O-])ccc5[nH]4)ccc3[nH]2)cc1 | 3900 nM | Not Active | 650 nM | Not Active |  |  |
| CCOc1ccc(-c2nc3cc(-c4nc5cc(N6CCN(C)CC6)ccc5[nH]4)ccc3[nH]2)cc1 | 500 nM |  | 5 nM |  | 710 nM | 1600 nM |
| COc1ccc(-c2nc3cc(-c4nc5cc(CN(C)C)ccc5[nH]4)ccc3[nH]2)cc1 | 6300 nM |  | 380 nM |  | 52000 nM | 10000 nM |
| COc1ccc(-c2nc3cc(-c4nc5cc(N(C)C)ccc5[nH]4)ccc3[nH]2)cc1 | 650 nM |  | 130 nM |  | 4900 nM | 26000 nM |
| COc1ccc(-c2nc3cc(-c4nc5cc(N)ccc5[nH]4)ccc3[nH]2)cc1 | 14000 nM |  | 1700 nM |  | 19000 nM | 6200 nM |
| COc1ccc(-c2nc3cc(-c4nc5cc(N6CCN(C)CC6)ccc5[nH]4)ccc3[nH]2)cc1 | 570 nM |  | < 50 nM |  | 840 nM | 1100 nM |
| COc1ccc(-c2nc3cc(-c4nc5cc(CCN(C)C)ccc5[nH]4)ccc3[nH]2)cc1 | 6100 nM |  | 610 nM |  | 43000 nM | 8500 nM |
| COc1ccc(-c2nc3cc(-c4nc5cc(OC6CCN(C)CC6)ccc5[nH]4)ccc3[nH]2)cc1 | 440 nM |  | < 40 nM |  | 380 nM | 2000 nM |
| COc1ccc(-c2nc3cc(-c4nc5cc(CCCN(C)C)ccc5[nH]4)ccc3[nH]2)cc1 | 7100 nM |  | 1200 nM |  | 28000 nM | 10000 nM |
